pEC50, pIC50: −log10 of the molar value. Read-outs that look alike come from different tables or passages of the source.
What was measured:
[1] = biological target: T1, human AR (Homo sapiens, UniProt P10275); assay: co-transfection assay, hAR in CV-1 cells (MTV-LUC reporter); type: cell-based
T1 construct: expressed in transfected cells; host or cells: CV-1 cells (African green monkey kidney fibroblasts)
T1 sequence (P10275 1-920): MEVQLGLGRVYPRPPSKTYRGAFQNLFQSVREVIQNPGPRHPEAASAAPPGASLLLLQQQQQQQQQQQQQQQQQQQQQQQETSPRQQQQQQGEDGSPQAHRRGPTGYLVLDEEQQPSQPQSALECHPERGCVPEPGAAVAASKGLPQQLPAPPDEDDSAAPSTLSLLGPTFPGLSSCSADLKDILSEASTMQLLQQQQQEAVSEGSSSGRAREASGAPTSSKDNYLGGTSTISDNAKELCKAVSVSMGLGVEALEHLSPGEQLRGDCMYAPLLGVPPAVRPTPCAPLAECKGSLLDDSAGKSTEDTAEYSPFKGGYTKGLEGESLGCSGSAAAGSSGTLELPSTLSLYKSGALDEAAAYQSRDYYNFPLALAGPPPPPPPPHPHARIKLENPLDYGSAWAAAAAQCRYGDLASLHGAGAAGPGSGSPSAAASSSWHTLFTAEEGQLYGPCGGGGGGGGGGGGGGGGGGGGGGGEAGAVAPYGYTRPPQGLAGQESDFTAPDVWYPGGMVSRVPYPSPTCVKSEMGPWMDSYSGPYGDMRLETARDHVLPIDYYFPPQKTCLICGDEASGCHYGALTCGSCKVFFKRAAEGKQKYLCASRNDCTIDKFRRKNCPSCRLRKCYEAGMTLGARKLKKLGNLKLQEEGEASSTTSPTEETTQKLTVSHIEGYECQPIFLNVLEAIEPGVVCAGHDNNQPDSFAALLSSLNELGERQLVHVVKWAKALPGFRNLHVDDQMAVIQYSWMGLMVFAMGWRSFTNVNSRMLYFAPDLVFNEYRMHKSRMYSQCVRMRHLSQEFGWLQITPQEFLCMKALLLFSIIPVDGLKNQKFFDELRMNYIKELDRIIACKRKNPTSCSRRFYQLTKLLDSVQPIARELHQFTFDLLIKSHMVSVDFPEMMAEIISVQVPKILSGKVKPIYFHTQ
Text: The co-transfection assay provides a method for identifying functional agonists and partial agonists that mimic, or antagonists that inhibit, the effect of native hormones and quantifying their activity for responsive IR proteins. In this regard, the co-transfection assay mimics an in vivo system in the laboratory. Importantly, activity in the co-transfection assay correlates very well with known in vivo activity, such that the co-transfection assay functions as a qualitative and quantitative predictor of a tested compounds in vivo pharmacology. , See e.g., T. Berger et al. 41 J. Steroid Biochem. Molec.
(§1) CV-1 cells (African green monkey kidney fibroblasts) were cultured in the presence of Dulbecco's Modified Eagle Medium (DMEM) supplemented with 10% charcoal resin-stripped fetal bovine serum (CH-FBS) then transferred to 96-well microtiter plates one day prior to transfection.
The reporter plasmid, MTV-LUC, contains the cDNA for firefly luciferase (LUC) under control of the mouse mammary tumor virus (MTV) long terminal repeat, a conditional promoter containing an androgen response element. See e.g., Berger et al. supra. In addition, pRS-β-Gal, coding for constitutive expression of E. coli β-galactosidase (β-Gal), was included as an internal control for evaluation of transfection efficiency and compound toxicity.
(§2) Three to four replicates were used for each sample.
(§3) After 40 hours, the cells were washed with PBS, lysed with a Triton X-100-based buffer and assayed for LUC and β-Gal activities using a luminometer or spectrophotometer, respectively. For each replicate, the normalized response (NR) was calculated as: LUC response/β-Gal rate • where β-Gal rate=β-Gal/β-Gal incubation time.

[2] = biological target: T2, MR (Homo sapiens, UniProt P08235); assay: co-transfection assay, MR; type: cell-based
T2 construct: expressed in transfected cells; host or cells: background cell substantially devoid of endogenous IRs (CV-1 described for the co-transfection assay)
T2 sequence (P08235 1-984): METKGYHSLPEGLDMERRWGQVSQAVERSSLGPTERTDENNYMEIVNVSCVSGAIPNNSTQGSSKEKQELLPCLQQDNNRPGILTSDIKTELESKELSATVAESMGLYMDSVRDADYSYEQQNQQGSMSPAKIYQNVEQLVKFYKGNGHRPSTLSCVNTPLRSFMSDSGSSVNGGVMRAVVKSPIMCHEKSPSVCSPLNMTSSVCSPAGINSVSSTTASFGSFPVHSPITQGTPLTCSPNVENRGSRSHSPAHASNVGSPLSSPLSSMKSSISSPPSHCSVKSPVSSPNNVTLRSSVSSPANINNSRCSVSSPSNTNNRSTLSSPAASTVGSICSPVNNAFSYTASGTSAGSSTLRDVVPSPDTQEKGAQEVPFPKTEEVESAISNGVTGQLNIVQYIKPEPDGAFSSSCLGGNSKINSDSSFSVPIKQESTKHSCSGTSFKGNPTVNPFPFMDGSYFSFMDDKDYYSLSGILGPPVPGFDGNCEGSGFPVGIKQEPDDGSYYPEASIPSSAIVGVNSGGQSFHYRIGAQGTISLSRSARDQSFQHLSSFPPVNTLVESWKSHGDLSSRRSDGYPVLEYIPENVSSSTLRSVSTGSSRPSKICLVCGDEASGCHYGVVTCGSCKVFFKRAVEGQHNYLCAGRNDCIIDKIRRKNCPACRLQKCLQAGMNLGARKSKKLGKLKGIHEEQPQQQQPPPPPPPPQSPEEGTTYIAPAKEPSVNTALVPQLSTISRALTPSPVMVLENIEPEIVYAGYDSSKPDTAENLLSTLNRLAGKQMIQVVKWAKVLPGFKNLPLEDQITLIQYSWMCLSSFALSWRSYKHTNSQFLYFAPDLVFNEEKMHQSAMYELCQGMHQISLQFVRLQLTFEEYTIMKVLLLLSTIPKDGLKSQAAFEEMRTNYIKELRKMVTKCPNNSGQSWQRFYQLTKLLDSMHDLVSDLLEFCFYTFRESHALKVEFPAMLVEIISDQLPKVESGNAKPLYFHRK
Procedure: as §1, §2, §3

[3] = agonist mode, luciferase production relative to DHT, hAR in CV-1 cells
[4] = antagonist mode, maximal inhibition of DHT-induced luciferase production, hAR in CV-1 cells
[5] = read-out: AR-wt Potency Antag, antagonist mode, Table 2

| SMILES | AR Agonist CV-1 Cells Efficacy [1] [%] | AR Antagonist CV-1 Cells Efficacy [1] | pEC50 [1] | pIC50 [1] | pIC50 ([1]; read-out: AR-wt Potency Antag) | pIC50 [2] | AR Agonist CV-1 Cells Efficacy [1, 3] [%] | AR Antagonist CV-1 Cells Efficacy [1, 4] | pIC50 [1, 5] |
| --- | --- | --- | --- | --- | --- | --- | --- | --- | --- |
| CC[C@@H]1COc2c(ccc3[nH]c(=O)cc(C(F)(F)F)c23)N1CC(F)(F)F [Compound 110, (3R)-3-Ethyl-2,3,4,7-tetrahydro-4-(2,2,2-trifluoroethyl)-10-(trifluoromethyl)-8H-[1,4]oxazino[2,3-f]quinolin-8-one] | 89 | na (key: na: not active (i.e. efficacy of <20 and potency of >10,000 nM for the cotransfection assay) | 9.22 | < 5.00 | < 5.00 | 5.90 |  |  |  |
| C=CCN1c2ccc3[nH]c(=O)cc(C(F)(F)F)c3c2OC[C@H]1CC [Compound 114, (3R)-4-Allyl-3-ethyl-2,3,4,7-tetrahydro-10-(trifluoromethyl)-8H-[1,4]oxazino[2,3-f]quinolin-8-one] |  |  | 7.28 |  |  | < 5.00 | 74 | na (not active (i.e. efficacy of <20 and potency of >10,000 nM for the cotransfection assay) | < 5.00 |
| CC(C)[C@@H]1COc2c(ccc3[nH]c(=O)cc(C(F)(F)F)c23)N1CC(F)(F)Cl [Compound 124, (3R)-4-(2-Chloro-2,2-difluoroethyl)-2,3,4,7-tetrahydro-3-isopropyl-10-(trifluoromethyl)-8H-[1,4]oxazino[2,3-f]quinolin-8-one] |  |  | 8.70 |  |  | < 5.00 | 70 | na (not active (i.e. efficacy of <20 and potency of >10,000 nM for the cotransfection assay) | < 5.00 |
